# Measurements as given in patent publication US20110224297A1, “Methods of administering prostratin and structural analogs thereof” (priority 2008, published 2011).
# Key:
# [1] = In vitro metabolism in rat liver microsomes; type: in vitro ADME
# Excerpt: (§1) In vitro metabolism of prostratin was investigated using mouse, rat, monkey, and human liver microsomes (Gentest). […] Attempts to identify the metabolite by LC/MS/MS were unsuccessful due to the low amounts present in the reaction mixtures (FIG. 1).
# [2] = In vitro metabolism in monkey liver microsomes; type: in vitro ADME
# Excerpt: as §1
# [3] = tested on: Salmonella typhimurium tester strains TA98, TA100, TA1535, and TA1537; assay: Salmonella/mammalian-microsome reverse mutation assay with confirmatory assay; type: cell-based; conditions: 100 to 5000 μg per plate; presence or absence of S9
# Excerpt: The objective of this study was to evaluate the test article, prostratin, for the ability to induce reverse mutations either in the presence or absence of mammalian microsomal enzymes at 1) the histidine locus in the genome of several strains of Salmonella typhimurium and at 2) the tryptophan locus of Escherichia coli tester strain WP2uvrA.
# The doses tested in the mutagenicity assay were selected based on the results of a dose range finding study using tester strains TA100 and WP2uvrA and ten doses of test article ranging from 6.67 to 5000 μg per plate, one plate per dose, both in the presence and absence of S9 mix.
# The tester strains used in the mutagenicity assay were Salmonella typhimurium tester strains TA98, TA100, TA1535, and TA1537 and Escherichia coli tester strain WP2uvrA. The assay was conducted with five doses of test article in both the presence and absence of S9 mix along with concurrent vehicle and positive controls using three plates per dose. The doses tested were 100, 333, 1000, 3330, and 5000 μg per plate in both the presence and absence of S9 mix. The results of the initial mutagenicity assay were confirmed in an independent experiment.
# [4] = In vitro metabolism in mouse liver microsomes; type: in vitro ADME
# Excerpt: as §1
# [5] = tested on: cultured human peripheral blood lymphocytes; assay: Chromosomal aberrations in cultured human peripheral blood lymphocytes; type: cell-based
# Description: The objective of this in vitro assay was to evaluate the ability of prostratin to cause structural chromosomal aberrations in cultured human lymphocytes with and without an exogenous metabolic activation system.
# Dimethylsulfoxide (DMSO) was the vehicle of choice for this study. […] The stock solution and its dilutions were dosed using a dosing volume of 1% (10 μL/ml) and the vehicle control cultures were treated with 10.0 μL/ml of DMSO.
# In the initial chromosomal aberrations assay, the treatment period was for 3 hours with and without metabolic activation, and cultures were harvested ˜22 hours from the initiation of treatment. Replicate cultures of human whole blood lymphocytes were incubated with test article at 23.7, 33.9, 48.4, 69.2, 98.9, 141, 202, 288, 412, 588, 840, 1200, 1720, 2450, and 3500 μg/ml with and without metabolic activation. Cultures treated with concentrations of 412, 588, 840, and 1200 μg/ml without metabolic activation and 588, 840, 1200, and 1720 μg/ml with metabolic activation were analyzed for chromosomal aberrations.
# In the confirmatory chromosomal aberrations assay, the treatment period was ˜22 hours without metabolic activation and 3 hours with metabolic activation, and cultures were harvested ˜22 hours from the initiation of treatment. Replicate cultures of human whole blood lymphocytes were incubated with test article at 15.6, 31.3, 62.5, 125, 188, 250, 375, 500, 750, 1000, 1400, and 1700 μg/ml without metabolic activation and 250, 500, 1000, 1400, 1700, 2000, and 2500 μg/ml with metabolic activation. Cultures treated with concentrations of 125, 250, 500, and 1400 μg/ml without metabolic activation and 1400, 1700, 2000, and 2500 μg/ml with metabolic activation were analyzed for chromosomal aberrations.
# For all treatment conditions, the vehicle and negative control cultures were within the expected range and the historical control data and the positive control cultures induced significant increases in chromosomal aberrations.
# [6] = tested on: polychromatic erythrocytes (PCE) in CD® (SD) IGS BR rat bone marrow; assay: In vivo rat bone marrow micronucleus assay
# Description: (§2) The objective of this study was to evaluate the test article, prostratin, for in vivo clastogenic activity and/or disruption of the mitotic apparatus by detecting micronuclei in polychromatic erythrocytes (PCE) in CD® (SD) IGS BR rat bone marrow.
# (§3) In the dose range-finding study, the test article was dissolved in ethanol followed by dilution with 0.9% Sodium Chloride for Injection to achieve a final ethanol:saline vehicle (0.8:99.2 v/v) at the appropriate dosing concentrations. The formulations were administered once by oral gavage to three males and three females per dose level. The animals were dosed at 0.4, 0.5, 2, or 5 mg/kg and observed for up to 2 days after dosing for toxic signs and/or mortality.
# (§4) Based on the results of the dose range-finding study, the maximum tolerated dose was estimated to be 2.4 mg/kg in the male animals and 2 mg/kg in the female animals. In the micronucleus assay, the test article was dissolved in ethanol followed by dilution with 0.9% Sodium Chloride for Injection to achieve a final ethanol:saline vehicle (0.8:99.2 v/v) at the appropriate dosing concentrations.
# (§5) Bone marrow was extracted and at least 2000 PCEs per animal were analyzed for the frequency of micronuclei. Cytotoxicity was assessed by scoring the number of PCEs and normochromatic erythrocytes (NCEs) in at least the first 500 total erythrocytes for each animal.
# [7] = In vivo rat bone marrow micronucleus assay; design: species or system CD® (SD) IGS BR rat; conditions: CD (SD) IGS BR, rat, in vivo, once by oral gavage, dose range-finding study, read-out: maximum tolerated dose
# Description: as §2, §3, §4, §5
# [8] = Single-dose range-finding study in rats; type: in vivo, Fisher rats; conditions: male, Fisher, rat, in vivo, intravenous; rats, single bolus dose; read-out: Maximum Tolerated Dose (MTD)
# Description: A single bolus dose of prostratin (0, 0.05, 0.1, 0.2, 0.4, and 0.8 mg/kg which correspond to 0, 0.3, 0.6, 1.2, 2.4, and 4.8 mg/m^2) was administered to Fisher rats (3 males/group) to determine the maximally tolerated dose and relative drug toxicity. […] Clinical signs of toxicity included decreased activity, prostration, tremors, and altered respiratory rate (decreased in some cases, increased in others). […] In the 0.4 mg/kg dose group, ALT and AST serum levels were 2- and 3-fold higher, respectively, than group mean ALT and AST values for control rats, and potassium level was decreased in 61% of the value obtained for control group animals. […] The Maximum Tolerated Dose (MTD) in rats is between 0.2-0.4 mg/kg dose of prostratin.
smiles,measurement,setting,value
"CC(=O)O[C@@]12C[C@@H](C)[C@@]3(O)[C@@H](C=C(CO)C[C@]4(O)C(=O)C(C)=C[C@@H]34)[C@@H]1C2(C)C [prostratin, 12-deoxyphorbol 13-acetate]",metabolism (time-dependent loss of parent compound),[1],substantially less
same,metabolism (time-dependent loss of parent compound),[2],greatest
same,mean number of revertants per plate,[3],did not cause a positive increase
same,metabolism (time-dependent loss of parent compound),[4],greatest
same,"cells with chromosomal aberrations, polyploidy, or endoreduplication","[5]; confirmatory assay, ~22 hours without and 3 hours with metabolic activation, 125-1400 μg/ml without, 1400-2500 μg/ml with",No significant increase
same,"cells with chromosomal aberrations, polyploidy, or endoreduplication","[5]; initial assay, 3 hours with and without metabolic activation, 412-1200 μg/ml without, 588-1720 μg/ml with",No significant increase
same,"induction of chromosomal aberrations, overall",[5]; without and with an exogenous metabolic activation system,negative
same,micronucleated PCEs,"[6]; 0.5, 1, or 2 mg/kg for females, 0.6, 1.2, and 2.4 mg/kg for males",did not induce statistically significant increases
same,cytotoxicity to the bone marrow (PCE:NCE ratios),[6]; any dose of the test article,not cytotoxic
same,clinical observations,"[6]; female animals, 2 mg/kg, approximately one hour post-dose, mortality, irregular respiration, piloerection, and/or recumbency",signs of clinical toxicity
same,"rat bone marrow micronucleus assay, overall","[6]; rat, in vivo",negative
same,MTD,[7]; female rats,2 mg/kg
same,MTD,[7]; male rats,2.4 mg/kg
same,MTD,[8],0.2 to 0.4 mg/kg
